Data on two compounds can be found in EPA's ToxValDB 9.5 (doi:10.2903/j.efsa.2009.1390).

Converted amounts (≈) assume the structure as drawn.

One series deals with Anas platyrhynchos. As to conditions: acute; oral; unspecified; mortality.
Another series concerns Typhlodromus pyri. Nature of the series: LR50; higher = less toxic. As to conditions: not reported; mortality.
The test system of a further series is Daphnia magna. As to conditions: chronic/long-term; duration: 21 days; reproduction.
The test system of the next series is Bibionidae. As to conditions: chronic/long-term; duration: 28 days.
The test system of another series is Canidae. As to conditions: chronic; duration: 1 years; oral; Dog Other; organ weight.
The test system of a further series is Rattus norvegicus. As to conditions: acute; oral; F; mortality.
The next series has as its system Apis mellifera. As to conditions: acute, mortality.
The subject of the next series is Oryctolagus sp. As to conditions: reproduction developmental; body weight.

As for `Nc1c(Cl)c(Cl)nc(C(=O)[O-])c1Cl.[K+]` [Picloram potassium salt], the LD50 in the series with Anas platyrhynchos is > 2250 mg/kg-day. Also, the LC50 in the series on Colinus virginianus (acute, oral, diet, mortality) is > 2200 mg/kg-day.
In general, NOAEL refers to the highest tested level that showed no adverse finding. Regarding `Nc1c(Cl)c(Cl)nc(C(=O)O)c1Cl` [Picloram], in the series on Typhlodromus pyri, the LR50 is > 23.4 g/ha. For the same compound, the NOEC in the series with Daphnia magna is 6.79 mg/L; in the series with Oncorhynchus mykiss (chronic/long-term, duration: 70 days, development) it was 0.55 mg/L; in the series on Bibionidae, 100 mg/L; in the series with Colinus virginianus (reproduction developmental), 65 mg/kg-day; in the series on Tagia sp. (chronic/long-term, duration: 8 weeks), 0.167 mg/kg. The LC50 in the series with Oncorhynchus mykiss (acute, duration: 96 hours, mortality) was 8.8 µg/mL (≈ 36.4 µM); in the series on Tagia sp. (acute, duration: 14 days, mortality), > 4480 mg/kg. For the same compound, the NOAEL in the series with Canidae is 35 mg/kg-day; in the series on Oryctolagus sp., 30 mg/kg-day. Further, the LD50 in the series with Rattus norvegicus was 4010 mg/kg-day; in the series with Apis mellifera (dermal) it was > 100 µg/piece; in the series with Apis mellifera (oral, unspecified), > 74 µg/piece.
